This is an account of results in EPA's ToxValDB 9.5.

One data set deals with Neomysis kadiakensis. The conditions noted are these: acute; duration: 96 hours; mortality.
The next data set concerns Daphnia magna. The settings on record: chronic/long-term; duration: 21 days; reproduction.
The subject of another data set is Canidae. The settings on record: subchronic; duration: 90 days; oral; Dog Other; clinical signs.
The test system of another data set is Anas platyrhynchos. The settings on record: acute; oral; unspecified.
The subject of another data set is Apis mellifera. The conditions noted are these: acute, mortality.

In brackets after ≈: the same amount, converted by molar mass.

As a reminder, the LC50 is the concentration lethal to half of the exposed cells or organisms. Read a low LC50 as a more lethal substance. Usually NOAEL stands for the highest tested level that showed no adverse finding. As for `O=[N+]([O-])/N=C1\NCCN1Cc1ccc(Cl)nc1` [Imidacloprid], the LC50 in the data set on Neomysis kadiakensis was 0.0341 µg/mL (≈ 0.133 µM); in the data set with Oncorhynchus mykiss (acute, duration: 96 hours, mortality) it was > 83 µg/mL. Besides, the NOEC with Daphnia magna was 1.8 mg/L; in the data set on Oncorhynchus mykiss (chronic/long-term, duration: 91 days, time to hatch), 9.02 mg/L; in the data set on Apis mellifera (dermal), < 2.5 µg/piece. For the same compound, the LD50 in the data set with Rattus norvegicus (acute) is 256 mg/kg-day; in the data set on Anas platyrhynchos, 66 mg/kg-day; in the data set with Apis mellifera (dermal), 0.081 µg/piece; in the data set with Apis mellifera (duration: 48 hours, dermal), 0.081 µg/piece; in the data set on Apis mellifera (duration: 48 hours, oral, unspecified), 0.0037 µg/piece; in the data set on Apis mellifera (duration: 120 hours, dermal) it was 0.0251 µg/piece. Besides, the LD50 in the data set on Apis mellifera (oral, unspecified) is 0.0037 µg/piece. Further, the NOAEL in the data set on Rattus norvegicus (chronic) came to 17 mg/kg-day; with Rattus norvegicus (chronic, duration: 2 years, M, histopathology: nonneoplastic), 5.7 mg/kg-day; with Rattus norvegicus (subchronic, duration: 90 days, oral, histopathology: nonneoplastic), 9.3 mg/kg-day; in the data set on Canidae, 7.8 mg/kg-day; in the data set with Colinus virginianus (reproduction developmental), 9.3 mg/kg-day. Besides, the NOEL in the data set on Colinus virginianus (short-term, oral, diet) is 29.4 mg/kg-day.
